Here are results for four molecules from paper PMC12385050, “Novel Neuroactive Steroid Analogs and Voltage-Dependent Blockers of CaV3.2 Currents, B372 and YX23, Are Effective Anti-Nociceptives with Diminished Sedative Properties in Intact Female Mice” (Biomolecules, 2025).

For test [1], the target named is T1, CaV3.2 (Homo sapiens, UniProt O95180).
T1 construct: gene CACNA1H; human CaV3.2 channels stably expressed in HEK-293 cells
Description: whole-cell patch clamp, concentration-response of peak T-current. The format is cell-based.

In test [2] the target is T1, CaV3.2. Description: whole-cell patch clamp, percent inhibition of peak current at […]. In kind it is cell-based.

Each structure is given as a SMILES string.

T1 sequence (O95180 whole entry): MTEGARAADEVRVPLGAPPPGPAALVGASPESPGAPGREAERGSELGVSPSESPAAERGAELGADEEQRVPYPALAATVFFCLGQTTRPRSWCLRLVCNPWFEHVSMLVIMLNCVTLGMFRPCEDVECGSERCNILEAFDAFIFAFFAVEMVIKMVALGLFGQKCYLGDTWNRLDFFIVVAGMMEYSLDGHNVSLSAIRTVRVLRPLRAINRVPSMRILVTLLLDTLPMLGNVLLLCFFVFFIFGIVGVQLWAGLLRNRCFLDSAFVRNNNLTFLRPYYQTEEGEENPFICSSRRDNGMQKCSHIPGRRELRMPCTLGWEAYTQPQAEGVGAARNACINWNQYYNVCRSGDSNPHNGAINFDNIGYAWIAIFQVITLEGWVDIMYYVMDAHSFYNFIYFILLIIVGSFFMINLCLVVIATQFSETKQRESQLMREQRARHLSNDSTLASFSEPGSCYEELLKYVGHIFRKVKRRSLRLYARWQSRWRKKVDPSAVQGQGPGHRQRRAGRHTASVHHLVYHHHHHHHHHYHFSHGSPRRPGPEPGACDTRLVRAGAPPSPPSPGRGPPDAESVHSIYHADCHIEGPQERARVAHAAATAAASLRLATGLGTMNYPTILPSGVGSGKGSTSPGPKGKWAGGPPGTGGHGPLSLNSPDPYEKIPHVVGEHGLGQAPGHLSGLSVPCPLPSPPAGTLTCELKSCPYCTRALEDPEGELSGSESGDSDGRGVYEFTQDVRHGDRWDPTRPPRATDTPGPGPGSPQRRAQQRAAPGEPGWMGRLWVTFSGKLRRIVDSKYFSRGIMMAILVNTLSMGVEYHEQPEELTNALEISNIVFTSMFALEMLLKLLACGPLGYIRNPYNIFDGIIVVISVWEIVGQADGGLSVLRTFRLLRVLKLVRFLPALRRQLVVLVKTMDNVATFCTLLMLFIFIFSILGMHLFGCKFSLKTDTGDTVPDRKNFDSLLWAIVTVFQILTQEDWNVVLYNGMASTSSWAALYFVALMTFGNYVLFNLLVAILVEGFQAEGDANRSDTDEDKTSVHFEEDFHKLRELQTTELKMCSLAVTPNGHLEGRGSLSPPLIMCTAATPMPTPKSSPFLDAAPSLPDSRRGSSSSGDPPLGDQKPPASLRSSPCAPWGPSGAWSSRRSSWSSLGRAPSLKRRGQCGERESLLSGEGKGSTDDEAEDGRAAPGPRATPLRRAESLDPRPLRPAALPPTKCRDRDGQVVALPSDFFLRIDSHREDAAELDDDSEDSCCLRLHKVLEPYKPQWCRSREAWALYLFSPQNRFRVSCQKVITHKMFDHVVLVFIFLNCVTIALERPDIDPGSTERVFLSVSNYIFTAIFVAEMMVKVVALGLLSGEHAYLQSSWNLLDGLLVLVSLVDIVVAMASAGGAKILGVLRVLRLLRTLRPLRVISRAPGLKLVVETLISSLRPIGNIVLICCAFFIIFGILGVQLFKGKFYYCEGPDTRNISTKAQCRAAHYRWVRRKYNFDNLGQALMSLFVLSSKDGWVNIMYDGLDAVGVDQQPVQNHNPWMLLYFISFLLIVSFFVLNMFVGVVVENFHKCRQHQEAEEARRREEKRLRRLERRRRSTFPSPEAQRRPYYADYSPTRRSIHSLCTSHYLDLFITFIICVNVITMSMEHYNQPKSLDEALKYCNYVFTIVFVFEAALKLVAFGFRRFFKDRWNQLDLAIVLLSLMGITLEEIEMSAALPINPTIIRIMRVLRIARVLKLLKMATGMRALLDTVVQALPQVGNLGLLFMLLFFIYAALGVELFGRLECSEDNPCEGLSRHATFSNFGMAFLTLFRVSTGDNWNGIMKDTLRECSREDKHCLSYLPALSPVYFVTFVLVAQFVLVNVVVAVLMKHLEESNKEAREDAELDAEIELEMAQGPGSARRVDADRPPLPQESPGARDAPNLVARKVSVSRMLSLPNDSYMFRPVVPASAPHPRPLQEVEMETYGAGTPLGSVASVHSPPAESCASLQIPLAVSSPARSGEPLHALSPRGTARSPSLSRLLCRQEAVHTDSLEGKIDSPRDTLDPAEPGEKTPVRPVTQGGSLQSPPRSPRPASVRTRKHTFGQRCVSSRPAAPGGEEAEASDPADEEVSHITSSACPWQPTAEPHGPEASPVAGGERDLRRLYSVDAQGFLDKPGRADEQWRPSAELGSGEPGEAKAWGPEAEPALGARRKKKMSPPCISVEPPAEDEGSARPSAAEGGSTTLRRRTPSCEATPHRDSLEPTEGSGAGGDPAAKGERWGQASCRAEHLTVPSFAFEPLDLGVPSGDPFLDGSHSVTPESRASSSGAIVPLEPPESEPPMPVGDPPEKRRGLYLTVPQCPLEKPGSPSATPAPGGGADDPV

Molecule `C[C@]12CC[C@H](O)C[C@@H]1CC[C@@H]1[C@@H]2CC[C@]2(C)[C@@H](C#N)CC[C@@H]12` [compound 6, (3β,5α,17β)-3-Hydroxyandrostan-17-carbonitrile] yielded an IC50 at CaV3.2 [1] of 3.8 µM.
Same read-out and setting: as for `CO[C@H]1CC[C@H]2[C@@H](CC[C@@H]3[C@@H]2CC[C@]2(C)[C@@H](O)CC[C@@H]32)C1` [compound 6, (3β,5α,17β)-3-Methoxyestran-17-ol], the figure is 2.4 µM.
`C[C@]12CC[C@H]3[C@@H](CC[C@H]4C[C@@H](C#N)CC[C@@H]43)[C@@H]1CC[C@@H]2O` [ECN, (3β,5α,17β)-17-hydroxyestrane-3-carbonitrile]: at 10 µM the inhibition against CaV3.2 [2] was 47.4 ± 5.2%.
Turning to `C[C@]12CC[C@H](O)C[C@H]1CC[C@@H]1[C@@H]2CC[C@]2(C)[C@@H](C#N)CC[C@@H]12` [3β-OH, (3β,5β,17β)-3-hydroxyandrostane-17-carbonitrile], at CaV3.2 [2], 10 µM produced 48.2 ± 4.2% inhibition.
